# In patent US10947271B2, “Antibacterial agents” (THE UNIVERSITY OF QUEENSLAND, priority 2014, dated 2021):
# Assays:
# Assay type in all cases: cell-based
# Details in all cases: 24 h incubation, visual reading
# [1] = system: Streptococcus pneumoniae MDR ATCC 700677; assay: MIC assay, S. pneumoniae MDR ATCC 700677
# Experimental: (§1) Antimicrobial activity of compounds was tested against a number of bacterial strains, including Staphylococcus aureus (MRSA ATCC 43300, GISA NRS17, VISA NRS1, MRSA clinical isolate, daptomycin resistant clinical isolate), Streptococcus pneumoniae (MDR ATCC 700677), Enterococcus faecalis (VanA clinical isolate) and Enterococcus faecium (MDR Van A ATCC 51559).
# (§2) All compounds were prepared to 160 μg/ml solution in water from a stock solution of 1 mM concentration.
# (§3) The compounds, along with standard antibiotics were serially diluted twofold across the wells of 96-well non-binding surface plates (NBS, Corning). Standards ranged from 64 μg/ml to 0.03 μg/ml and compounds from 8 μg/ml to 0.003 μg/ml with final volumes of 50 μL per well. Gram positive bacteria were cultured in Muller Hinton broth (MHB) (Bacto laboratories, Cat. no. 211443) at 37° C. overnight. A sample of each culture was then diluted 40-fold in fresh MHB broth and incubated at 37° C. for 2-3 hrs. The resultant mid-log phase cultures were diluted to the final concentration of 5×10e5 CFU/mL, then 50 μL was added to each well of the compound-containing 96-well plates. All the plates were covered and incubated at 37° C. for 24 h. MICs were the lowest concentration showing no visible growth.
# (§4) MICs were determined visually at 24 hr incubation and the MIC was defined as the lowest concentration with which no growth was visible after incubation. Both MIC and MBC were determined by visual inspection only.
# [2] = system: Staphylococcus aureus MRSA ATCC 43300; assay: MIC assay, S. aureus MRSA ATCC 43300
# Experimental: as §1, §2, §3, §4
# [3] = system: Enterococcus faecium MDR Van A ATCC 51559; assay: MIC assay, E. faecium MDR Van A ATCC 51559
# Experimental: as §1, §2, §3, §4
Compound,Minimum Inhibitory Concentration (MIC) S. pneumoniae ATCC 700677 [1],Minimum Inhibitory Concentration (MIC) Staph. aureus ATCC43300 [2],Minimum Inhibitory Concentration (MIC) E. faecium ATCC51559 [3]
CCCCCCCCCCCCCC(=O)N[C@@H](CCCCN)C(=O)N[C@@H](CCCCN)C(=O)NCCCNC(=O)[C@H]1NC(=O)[C@H]2NC(=O)[C@H](NC(=O)[C@@H]3NC(=O)[C@H](CC(N)=O)NC(=O)[C@H](NC(=O)[C@@H](CC(C)C)NC)[C@H](O)c4ccc(c(Cl)c4)Oc4cc3cc(c4O[C@@H]3O[C@H](CO)[C@@H](O)[C@H](O)[C@H]3O[C@H]3C[C@](C)(N)[C@H](O)[C@H](C)O3)Oc3ccc(cc3Cl)[C@H]2O)c2ccc(O)c(c2)-c2c(O)cc(O)cc21 [MCC_000345],xxxxx (xxxxx = <0.01),xxxxx (xxxxx = <0.01),xxxx (xxxx = 0.01-<0.1)
CNC(CC(C)C)C(=O)NC1C(=O)NC(CC(N)=O)C(=O)NC2C(=O)NC3C(=O)NC(C(=O)NC(C(=O)NCCCCC(NC(=O)C(CCCCN)NC(=O)C(CCCCN)NC(=O)CNC(=O)c4ccc(Oc5ccccc5)cc4)C(=O)O)c4cc(O)cc(O)c4-c4cc3ccc4O)C(O)c3ccc(c(Cl)c3)Oc3cc2cc(c3OC2OC(CO)C(O)C(O)C2OC2CC(C)(N)C(O)C(C)O2)Oc2ccc(cc2Cl)C1O (stereo not drawn) [MCC_000381],xx (xx = 1-4),xxx (xxx = 0.1-<1),x (x = >4)
CCCCCCCC(=O)NC(CCCCN)C(=O)NC(CCCCN)C(=O)NC(CCCCNC(=O)C1NC(=O)C2NC(=O)C(NC(=O)C3NC(=O)C(CC(N)=O)NC(=O)C(NC(=O)C(CC(C)C)NC)C(O)c4ccc(c(Cl)c4)Oc4cc3cc(c4OC3OC(CO)C(O)C(O)C3OC3CC(C)(N)C(O)C(C)O3)Oc3ccc(cc3Cl)C2O)c2ccc(O)c(c2)-c2c(O)cc(O)cc21)C(=O)NC (stereo not drawn) [MCC_000489],xxx (xxx = 0.1-<1),xx (xx = 1-4),x (x = >4)
CCCCCCCC(=O)NCCCCC(NC(=O)CCCCCCC)C(=O)NC(CCCCN)C(=O)NC(CCCCNC(=O)C1NC(=O)C2NC(=O)C(NC(=O)C3NC(=O)C(CC(N)=O)NC(=O)C(NC(=O)C(CC(C)C)NC)C(O)c4ccc(c(Cl)c4)Oc4cc3cc(c4OC3OC(CO)C(O)C(O)C3OC3CC(C)(N)C(O)C(C)O3)Oc3ccc(cc3Cl)C2O)c2ccc(O)c(c2)-c2c(O)cc(O)cc21)C(=O)NC (stereo not drawn) [MCC_000490],xxxxx (xxxxx = <0.01),xxxx (xxxx = 0.01-<0.1),x (x = >4)
CCCCCCCCC(=O)NC(CCCCN)C(=O)NC(CCCCN)C(=O)NC(CCCCNC(=O)C1NC(=O)C2NC(=O)C(NC(=O)C3NC(=O)C(CC(N)=O)NC(=O)C(NC(=O)C(CC(C)C)NC)C(O)c4ccc(c(Cl)c4)Oc4cc3cc(c4OC3OC(CO)C(O)C(O)C3OC3CC(C)(N)C(O)C(C)O3)Oc3ccc(cc3Cl)C2O)c2ccc(O)c(c2)-c2c(O)cc(O)cc21)C(=O)NC (stereo not drawn) [MCC_000491],xxx (xxx = 0.1-<1),xxx (xxx = 0.1-<1),x (x = >4)

# Next, values leading:
Minimum Inhibitory Concentration (MIC) S. pneumoniae ATCC 700677 [1],Minimum Inhibitory Concentration (MIC) Staph. aureus ATCC43300 [2],Minimum Inhibitory Concentration (MIC) E. faecium ATCC51559 [3],Compound
xxxxx (xxxxx = <0.01),xxxxx (xxxxx = <0.01),xxxx (xxxx = 0.01-<0.1),CCCCCCCCCCCCCC(=O)N[C@@H](CCCCN)C(=O)N[C@@H](CCCCN)C(=O)N[C@@H](CCCCN)C(=O)N[C@@H](CCCCNC(=O)[C@H]1NC(=O)[C@H]2NC(=O)[C@H](NC(=O)[C@@H]3NC(=O)[C@H](CC(N)=O)NC(=O)[C@H](NC(=O)[C@@H](CC(C)C)NC)[C@H](O)c4ccc(c(Cl)c4)Oc4cc3cc(c4O[C@@H]3O[C@H](CO)[C@@H](O)[C@H](O)[C@H]3O[C@H]3C[C@](C)(N)[C@H](O)[C@H](C)O3)Oc3ccc(cc3Cl)[C@H]2O)c2ccc(O)c(c2)-c2c(O)cc(O)cc21)C(=O)NC [MCC_000343]
xxxx (xxxx = 0.01-<0.1),xxxx (xxxx = 0.01-<0.1),x (x = >4),CCCCCCCCCCC(=O)NCC(=O)N[C@@H](CCCCN)C(=O)N[C@@H](CCCCN)C(=O)N[C@@H](CCCCN)C(=O)N[C@@H](CCCCNC(=O)[C@H]1NC(=O)[C@H]2NC(=O)[C@H](NC(=O)[C@@H]3NC(=O)[C@H](CC(N)=O)NC(=O)[C@H](NC(=O)[C@@H](CC(C)C)NC)[C@H](O)c4ccc(c(Cl)c4)Oc4cc3cc(c4O[C@@H]3O[C@H](CO)[C@@H](O)[C@H](O)[C@H]3O[C@H]3C[C@](C)(N)[C@H](O)[C@H](C)O3)Oc3ccc(cc3Cl)[C@H]2O)c2ccc(O)c(c2)-c2c(O)cc(O)cc21)C(=O)O [MCC_000346]
xxxxx (xxxxx = <0.01),xxxxx (xxxxx = <0.01),xxx (xxx = 0.1-<1),CCCCCCCCCCCC(=O)N[C@@H](CCCCN)C(=O)N[C@@H](CCCCN)C(=O)N[C@@H](CCCCN)C(=O)N[C@@H](CCCCNC(=O)[C@H]1NC(=O)[C@H]2NC(=O)[C@H](NC(=O)[C@@H]3NC(=O)[C@H](CC(N)=O)NC(=O)[C@H](NC(=O)[C@@H](CC(C)C)NC)[C@H](O)c4ccc(c(Cl)c4)Oc4cc3cc(c4O[C@@H]3O[C@H](CO)[C@@H](O)[C@H](O)[C@H]3O[C@H]3C[C@](C)(N)[C@H](O)[C@H](C)O3)Oc3ccc(cc3Cl)[C@H]2O)c2ccc(O)c(c2)-c2c(O)cc(O)cc21)C(=O)O [MCC_000348]
xxxxx (xxxxx = <0.01),xxxxx (xxxxx = <0.01),xxx (xxx = 0.1-<1),CCCCCCCCCCCCC(=O)N[C@@H](CCCCN)C(=O)N[C@@H](CCCCN)C(=O)N[C@@H](CCCCNC(=O)[C@H]1NC(=O)[C@H]2NC(=O)[C@H](NC(=O)[C@@H]3NC(=O)[C@H](CC(N)=O)NC(=O)[C@H](NC(=O)[C@@H](CC(C)C)NC)[C@H](O)c4ccc(c(Cl)c4)Oc4cc3cc(c4O[C@@H]3O[C@H](CO)[C@@H](O)[C@H](O)[C@H]3O[C@H]3C[C@](C)(N)[C@H](O)[C@H](C)O3)Oc3ccc(cc3Cl)[C@H]2O)c2ccc(O)c(c2)-c2c(O)cc(O)cc21)C(=O)O [MCC_000349]
xxxxx (xxxxx = <0.01),xxxxx (xxxxx = <0.01),xxx (xxx = 0.1-<1),CCCCCCCCCCCCC(=O)N[C@@H](CCCCN)C(=O)N[C@@H](CCCCN)C(=O)N[C@@H](CCCCN)C(=O)N[C@@H](CCCCNC(=O)[C@H]1NC(=O)[C@H]2NC(=O)[C@H](NC(=O)[C@@H]3NC(=O)[C@H](CC(N)=O)NC(=O)[C@H](NC(=O)[C@@H](CC(C)C)NC)[C@H](O)c4ccc(c(Cl)c4)Oc4cc3cc(c4O[C@@H]3O[C@H](CO)[C@@H](O)[C@H](O)[C@H]3O[C@H]3C[C@](C)(N)[C@H](O)[C@H](C)O3)Oc3ccc(cc3Cl)[C@H]2O)c2ccc(O)c(c2)-c2c(O)cc(O)cc21)C(=O)O [MCC_000350]
xxxxxx,xxxxx (xxxxx = <0.01),x (x = >4),CCCCCCCCCC(=O)NC(CCCCN)C(=O)NC(CCCCN)C(=O)NC(CCCCNC(=O)C1NC(=O)C2NC(=O)C(NC(=O)C3NC(=O)C(CC(N)=O)NC(=O)C(NC(=O)C(CC(C)C)NC)C(O)c4ccc(c(Cl)c4)Oc4cc3cc(c4OC3OC(CO)C(O)C(O)C3OC3CC(C)(N)C(O)C(C)O3)Oc3ccc(cc3Cl)C2O)c2ccc(O)c(c2)-c2c(O)cc(O)cc21)C(=O)NC (stereo not drawn) [MCC_000492]
